Measured values taken from patent US12116358B2, “Substituted indoles and methods of use thereof” (EPIZYME, INC., priority 2018, dated 2024).
Like-named read-outs stand apart in the source and are kept apart here.

Columns and labels:
SETD2(1434-1711) = target: T1, SETD2(1434-1711) (Homo sapiens, UniProt Q9BYW2); assay: SETD2 (1434-1711) assay; type: biochemical; conditions: read-out: SETD2 (1434-1711)
T1 construct: SETD2 (1434-1711) Assay; catalogue N/A
T1 sequence (Q9BYW2 1434-1711): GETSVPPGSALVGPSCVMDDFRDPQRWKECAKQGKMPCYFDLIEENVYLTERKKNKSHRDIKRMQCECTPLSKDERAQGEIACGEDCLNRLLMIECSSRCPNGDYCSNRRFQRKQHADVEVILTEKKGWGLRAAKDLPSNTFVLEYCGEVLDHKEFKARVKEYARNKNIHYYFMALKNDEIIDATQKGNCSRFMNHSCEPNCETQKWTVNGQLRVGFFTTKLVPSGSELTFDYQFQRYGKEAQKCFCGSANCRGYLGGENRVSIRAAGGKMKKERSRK

H3K36me3 in A549 cells = assay: In-Cell Western (ICW) assay of SETD2 inhibitors (A549 assay); type: cell-based, human; conditions: A549 cells, read-out: SETD2 A549
Method in brief: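 H3K36me3 In-Cell Western: cells exposed to compound for 3 days at 4,000 cells/well, 37° C. DRAQ5 (1:1000) marked cell number, with 700/800-channel Licor read-out.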

IC50 (SETD2(1434-1711)) | IC50 (H3K36me3 in A549 cells; Homo sapiens) | IC50 (H3K36me3 in A549 cells) | SMILES
100 nM | 300 nM |  | Cc1ccc(F)c2cc(C(=O)Nc3cccc(N4CCN(S(C)(=O)=O)CC4)c3)[nH]c12 [compound 176]
30 nM | 100 nM |  | Cc1ccc(F)c2cc(C(=O)N[C@@H]3CCC[C@H](N4CCC(N5CCCC5=O)C4)C3)[nH]c12 (stereo partly drawn) [compound 910]
800 nM | 800 nM |  | CC(=O)N1CCN([C@H]2CCC[C@@H](NC(=O)c3cc4c(F)ccc(C)c4[nH]3)C2)[C@H](C)C1 [compound 1092]
1000 nM |  | > 2000 nM | COCC(=O)N1CCN([C@@H]2CCC[C@@H](NC(=O)c3cc4c(F)ccc(C)c4[nH]3)C2)CC1 [compound 847]
30 nM |  | 400 nM | CCN(C(=O)CO)C1CCN(C2CCCC(NC(=O)c3cc4c(F)ccc(C)c4[nH]3)C2)C1 (stereo not drawn) [compound 1053]
2400 nM | > 25000 nM |  | Cc1cc(CC(=O)O)cnc1C(NC(=O)c1cc2c(F)ccc(C)c2[nH]1)C1CC1 (stereo not drawn) [compound 542]
500 nM |  | 800 nM | Cc1ccc(F)c2cc(C(=O)NC3CCCC(N4CCn5c(cn(C)c5=O)C4)C3)[nH]c12 (stereo not drawn) [compound 1179]
90 nM | 300 nM |  | Cc1ccc(F)c2cc(C(=O)Nc3cccc(C4CCN(C)C(=O)C4)c3)[nH]c12 (stereo not drawn) [compound 160]
> 10000 nM |  | > 2000 nM | CC(=O)N1CCN(C2CCC(NC(=O)c3cc4c(F)ccc(C)c4[nH]3)C2)CC1 (stereo not drawn) [compound 376]
> 10000 nM | > 2000 nM |  | Cc1ccc(F)c2cc(C(=O)N[C@@H]3CCC[C@@H](N4CCN(C)CC4=O)C3)[nH]c12 [compound 917]
7700 nM |  | > 25000 nM | Cc1cccc2cc(C(=O)NC3CC4CCC(C3)N4C(=O)CCCN)[nH]c12 (stereo not drawn) [compound 552]
1300 nM | > 2000 nM |  | Cc1ccc(F)c2cc(C(=O)N[C@@H]3CCC[C@@H](N4CCC5(CC4)CNC(=O)N5)C3)[nH]c12 [compound 941]
200 nM |  | 1600 nM | Cc1ccc(F)c2cc(C(=O)Nc3cccc(N4CCCC4)c3)[nH]c12 [compound 332]
31200 nM | > 25000 nM |  | CCN(CC)CCCC(NC(=O)c1cc2cccc(C)c2[nH]1)c1ncccc1C (stereo not drawn) [compound 582]
10 nM |  | 70 nM | Cc1ccc(F)c2cc(C(=O)Nc3cc(F)cc(C4CCN5C(=O)CCC5C4)c3)[nH]c12 (stereo not drawn) [compound 26]
200 nM | 600 nM |  | Cc1ccc(F)c2cc(C(=O)Nc3cccc(CC(=O)N(C)C)c3)[nH]c12 [compound 256]
600 nM | 1400 nM |  | Cc1ccc(F)c2cc(C(=O)Nc3cccc(C(C)(C)O)c3)[nH]c12 [compound 315]
100 nM | 1800 nM |  | Cc1ccc(F)c2cc(C(=O)N[C@@H]3CCCC(N4CCC5(CC4)CNC(=O)C5)C3)[nH]c12 (stereo partly drawn) [compound 896]
20 nM | 200 nM |  | Cc1ccc(F)c2cc(C(=O)Nc3cccc(N4CCC5(CC4)COCCN5)c3)[nH]c12 [compound 95]
1900 nM |  | > 2000 nM | CC(=O)N1CCN(C2CCCC(NC(=O)c3cc4c(F)ccc(C)c4[nH]3)C2)CC1C (stereo not drawn) [compound 968]

IC50 (SETD2(1434-1711)) | IC50 (H3K36me3 in A549 cells; Homo sapiens) | IC50 (H3K36me3 in A549 cells) | SMILES
> 50000 nM | 13100 nM |  | Cc1cncnc1C(NC(=O)c1cc2cccc(C)c2[nH]1)C1CC1 (stereo not drawn) [compound 493]
100 nM | 900 nM |  | Cc1ccc(F)c2cc(C(=O)Nc3cccc(N4CCN(C(C)C)CC4C)c3)[nH]c12 (stereo not drawn) [compound 280]
> 10000 nM | > 2000 nM |  | Cc1ccc(F)c2cc(C(=O)N[C@H]3CCCN(C4CCN(C(=O)CN(C)C)CC4)C3)[nH]c12 [compound 892]
300 nM | 1600 nM |  | Cc1ccc(F)c2cc(C(=O)N[C@@H]3CCC[C@@H](N4CCN5C(=O)N(C)C[C@H]5C4)C3)[nH]c12 [compound 1128]
30 nM | 300 nM |  | Cc1ccc(F)c2cc(C(=O)N[C@@H]3CCC[C@H](N4CCN(C(=O)NC5CCOCC5)CC4)C3)[nH]c12 [compound 1037]
400 nM |  | 3900 nM | Cc1cc(-c2ccc(N)nc2)cnc1C(NC(=O)c1cc2cccc(C)c2[nH]1)C1CC1 (stereo not drawn) [compound 426]
> 10000 nM |  | > 2000 nM | CNC(=O)CCN1CCCC(NC(=O)c2cc3c(F)ccc(C)c3[nH]2)C1 (stereo not drawn) [compound 386]
2200 nM | 6200 nM |  | Cc1ccc(F)c2cc(C(=O)NC3C(=O)NCc4ccccc43)[nH]c12 (stereo not drawn) [compound 458]
20 nM | 70 nM |  | Cc1ccc(F)c2cc(C(=O)N[C@@H]3CCC[C@H](N4CCn5c(cccc5=O)C4)C3)[nH]c12 [compound 1048]
30 nM | 100 nM |  | CC(=O)N1CCC(c2cccc(NC(=O)c3cc4c(F)ccc(C)c4[nH]3)c2)CC1 [compound 45]
1000 nM | 1800 nM |  | CC(=O)N1CCN([C@@H]2C[C@H](NC(=O)c3cc4c(F)ccc(C)c4[nH]3)CN(C)C2)CC1 [compound 1006]
> 10000 nM | > 2000 nM |  | Cc1ccc(F)c2cc(C(=O)Nc3ncc(C4CCN(C)CC4)[nH]3)[nH]c12 [compound 371]
40 nM | 800 nM |  | Cc1ccc(F)c2cc(C(=O)Nc3cc(CF)cc(N4CCC(N(C)C)CC4)c3)[nH]c12 [compound 274]
4100 nM |  | > 2000 nM | CC(=O)N1CCN(C2COCC(NC(=O)c3cc4c(F)ccc(C)c4[nH]3)C2)CC1 (stereo not drawn) [compound 988]
20 nM |  | 100 nM | CC(=O)N(C)C1CCCN(c2cccc(NC(=O)c3cc4c(F)ccc(C)c4[nH]3)c2)C1 (stereo not drawn) [compound 42]
8300 nM |  | > 25000 nM | NCCC(=O)NC1CCC(NC(=O)c2cc3cccc(Br)c3[nH]2)CC1 (stereo not drawn) [compound 553]
5500 nM |  | > 2000 nM | Cc1ccc(F)c2cc(C(=O)NC3CCCC(N4CCn5nc(C(F)(F)F)nc5C4)C3)[nH]c12 (stereo not drawn) [compound 1066]
200 nM | 800 nM |  | CC(=O)N1CCN(c2cc(F)cc(NC(=O)c3cc4c(F)cccc4[nH]3)c2)CC1 [compound 271]
40 nM | 100 nM |  | Cc1ccc(F)c2cc(C(=O)N[C@@H]3CCC[C@H](N4CCn5c(cn(C)c5=O)C4)C3)[nH]c12 [compound 1057]
40 nM |  | 400 nM | CC(=O)NC1CCN([C@H]2CCC[C@@H](NC(=O)c3cc4c(F)ccc(C)c4[nH]3)C2)C1 (stereo partly drawn) [compound 833]

IC50 (SETD2(1434-1711)) | IC50 (H3K36me3 in A549 cells; Homo sapiens) | IC50 (H3K36me3 in A549 cells) | SMILES
3100 nM |  | > 25000 nM | Cc1ccc(F)c2cc(C(=O)Nc3cccc(-c4noc(=O)[nH]4)c3)[nH]c12 [compound 545]
4800 nM |  | > 2000 nM | Cc1ccc(F)c2cc(C(=O)NC3CCCC(N4CCN(C(=O)CO)C(C(F)(F)F)C4)C3)[nH]c12 (stereo not drawn) [compound 1174]
100 nM | 400 nM |  | CC(=O)N1CCN(c2ccc(F)c(NC(=O)c3cc4c(F)ccc(C)c4[nH]3)c2)CC1 [compound 185]
50 nM | 300 nM |  | Cc1ccc(F)c2cc(C(=O)Nc3cccc(-c4nnc(CN(C)C)s4)c3)[nH]c12 [compound 132]
200 nM | 1300 nM |  | Cc1cc(Cn2ccnc2)cnc1C(NC(=O)c1cc2cccc(C)c2[nH]1)C1CC1 (stereo not drawn) [compound 309]
9400 nM |  | 13800 nM | Cc1ccc(F)c2cc(C(=O)NC3CCCc4cccnc43)[nH]c12 (stereo not drawn) [compound 498]
8400 nM |  | 6600 nM | CCc1cccc2cc(C(=O)NC(CCC(=O)N3CCOCC3)c3ncccc3C)[nH]c12 (stereo not drawn) [compound 464]
30 nM | 1300 nM |  | Cc1ccc(F)c2cc(C(=O)Nc3cc(C(F)F)cc(N4CCC(N(C)C)CC4)c3)[nH]c12 [compound 311]
70 nM | 300 nM |  | Cc1ccc(F)c2cc(C(=O)Nc3cccc([C@H]4CCN5C(=O)CC[C@@H]5C4)c3)[nH]c12 [compound 166]
7 nM |  | 50 nM | CC(=O)N1CCC2CN(c3cc(F)cc(NC(=O)c4cc5c(F)ccc(C)c5[nH]4)c3)CC21 (stereo not drawn) [compound 14]
1500 nM |  | > 2000 nM | Cc1ccc(F)c2cc(C(=O)NC3CCCC(N4CCN(C(=O)OC5CCOCC5)CC4)C3)[nH]c12 (stereo not drawn) [compound 1000]
60 nM | 700 nM |  | Cc1ccc(F)c2cc(C(=O)Nc3cccc(-c4cccc(CN(C)C)c4)c3)[nH]c12 [compound 266]
30 nM | 300 nM |  | Cc1ccc(F)c2cc(C(=O)Nc3cccc(N4CCNC(=O)C4)c3)[nH]c12 [compound 147]
> 10000 nM |  | > 2000 nM | Cc1ccc(F)c2cc(C(=O)NC3CCCC(N4CCCOCC4)C3)[nH]c12 (stereo not drawn) [compound 388]
2600 nM |  | > 2000 nM | CC(=O)N1CCN(C2CCCC(NC(=O)c3cc4c(F)ccc(C)c4[nH]3)C2)CC1CO (stereo not drawn) [compound 1022]
37400 nM | > 25000 nM |  | Cc1cccc2cc(C(=O)N[C@H]3CC[C@H](NC(=O)CCN4CCCCC4)CC3)[nH]c12 [compound 587]
100 nM |  | 600 nM | CC(=O)N1CCCN(c2cccc(NC(=O)c3cc4c(F)ccc(C)c4[nH]3)c2)CC1 [compound 248]
20 nM |  | 200 nM | COC(=O)N1CCC2(CC1)CCN(c1cccc(NC(=O)c3cc4c(F)ccc(C)c4[nH]3)c1)C2 [compound 83]
1000 nM | 4100 nM |  | Cc1ccc(F)c2cc(C(=O)Nc3cccc(-c4ncc[nH]4)c3)[nH]c12 [compound 428]
30 nM |  | 100 nM | Cc1ccc(F)c2cc(C(=O)Nc3cccc(N4CCN(C(=O)c5cccnc5)CC4)c3)[nH]c12 [compound 49]
